# Tests used:
# UO-31 = experiment: Antiproliferative activity against human UO-31 cells assessed as cell growth inhibition at 10 uM incubated for 24 hrs by sulforhodamine B assay; assay type: functional; details: read-out: GI
# Malme-3M = experiment: Antiproliferative activity against human Malme-3M cells assessed as cell growth inhibition at 10 uM incubated for 24 hrs by sulforhodamine B assay; assay type: functional; details: read-out: GI
# Carbonic anhydrase 1 = Carbonic anhydrase 1 (Homo sapiens, UniProt P00915); experiment: Inhibition of human CA1 preincubated for 15 mins by phenol red dye based stopped flow CO2 hydration assay
# Carbonic anhydrase 2 = Carbonic anhydrase 2 (Homo sapiens, UniProt P00918); experiment: Inhibition of human CA2 preincubated for 15 mins by phenol red dye based stopped flow CO2 hydration assay
# CAKI-1 = experiment: Antiproliferative activity against human CAKI-1 cells assessed as cell growth inhibition at 10 uM incubated for 24 hrs by sulforhodamine B assay; assay type: functional; details: read-out: GI
# HOP-92 = experiment: Antiproliferative activity against human HOP-92 cells assessed as cell growth inhibition at 10 uM incubated for 24 hrs by sulforhodamine B assay; assay type: functional; details: read-out: GI
# HL-60 = experiment: Antiproliferative activity against human HL-60 cells assessed as cell growth inhibition at 10 uM incubated for 24 hrs by sulforhodamine B assay; assay type: functional; details: read-out: GI
# MCF7 [1] = experiment: Antiproliferative activity against human MCF7 cells assessed as cell growth inhibition at 10 uM incubated for 24 hrs by sulforhodamine B assay; assay type: functional; details: read-out: GI
# SR = experiment: Antiproliferative activity against human SR cells assessed as cell growth inhibition at 10 uM incubated for 24 hrs by sulforhodamine B assay; assay type: functional; details: read-out: GI
# HCT-15 = experiment: Antiproliferative activity against human HCT-15 cells assessed as cell growth inhibition at 10 uM incubated for 24 hrs by sulforhodamine B assay; assay type: functional; details: read-out: GI
# LOX IMVI = experiment: Antiproliferative activity against human LOX IMVI cells assessed as cell growth inhibition at 10 uM incubated for 24 hrs by sulforhodamine B assay; assay type: functional; details: read-out: GI
# Carbonic anhydrase 9 = Carbonic anhydrase 9 (Homo sapiens, UniProt Q16790); experiment: Inhibition of human CA9 preincubated for 15 mins by phenol red dye based stopped flow CO2 hydration assay
# K562 = experiment: Antiproliferative activity against human K562 cells assessed as cell growth inhibition at 10 uM incubated for 24 hrs by sulforhodamine B assay; assay type: functional; details: read-out: GI
# SF-539 = experiment: Antiproliferative activity against human SF-539 cells assessed as cell growth inhibition at 10 uM incubated for 24 hrs by sulforhodamine B assay; assay type: functional; details: read-out: GI
# DU-145 = experiment: Antiproliferative activity against human DU-145 cells assessed as cell growth inhibition at 10 uM incubated for 24 hrs by sulforhodamine B assay; assay type: functional; details: read-out: GI
# NCI-H23 = experiment: Antiproliferative activity against human NCI-H23 cells assessed as cell growth inhibition at 10 uM incubated for 24 hrs by sulforhodamine B assay; assay type: functional; details: read-out: GI
# Hs-578T = experiment: Antiproliferative activity against human HS-578T cells assessed as cell growth inhibition at 10 uM incubated for 24 hrs by sulforhodamine B assay; assay type: functional; details: read-out: GI
# NCI-H460 = experiment: Antiproliferative activity against human NCI-H460 cells assessed as cell growth inhibition at 10 uM incubated for 24 hrs by sulforhodamine B assay; assay type: functional; details: read-out: GI
# SNB-75 = experiment: Antiproliferative activity against human SNB-75 cells assessed as cell growth inhibition at 10 uM incubated for 24 hrs by sulforhodamine B assay; assay type: functional; details: read-out: GI
# A498 = experiment: Antiproliferative activity against human A498 cells assessed as cell growth inhibition at 10 uM incubated for 24 hrs by sulforhodamine B assay; assay type: functional; details: read-out: GI
# ACHN = experiment: Antiproliferative activity against human ACHN cells assessed as cell growth inhibition at 10 uM incubated for 24 hrs by sulforhodamine B assay; assay type: functional; details: read-out: GI
# CCRF-CEM = experiment: Antiproliferative activity against human CCRF-CEM cells assessed as cell growth inhibition at 10 uM incubated for 24 hrs by sulforhodamine B assay; assay type: functional; details: read-out: GI
# SW-620 = experiment: Antiproliferative activity against human SW-620 cells assessed as cell growth inhibition at 10 uM incubated for 24 hrs by sulforhodamine B assay; assay type: functional; details: read-out: GI
# MOLT-4 = experiment: Antiproliferative activity against human MOLT-4 cells assessed as cell growth inhibition at 10 uM incubated for 24 hrs by sulforhodamine B assay; assay type: functional; details: read-out: GI
# UACC-62 = experiment: Antiproliferative activity against human UACC-62 cells assessed as cell growth inhibition at 10 uM incubated for 24 hrs by sulforhodamine B assay; assay type: functional; details: read-out: GI
# MDA-MB-231 [2] = experiment: Antiproliferative activity against human MDA-MB-231 cells assessed as reduction in cell viability incubated for 24 hrs by sulforhodamine B assay; assay type: functional, cell-based; details: MDA-MB-231, 24 h
# NCI-H522 = experiment: Antiproliferative activity against human NCI-H522 cells assessed as cell growth inhibition at 10 uM incubated for 24 hrs by sulforhodamine B assay; assay type: functional; details: read-out: GI
# NCI-H226 = experiment: Antiproliferative activity against human NCI-H226 cells assessed as cell growth inhibition at 10 uM incubated for 24 hrs by sulforhodamine B assay; assay type: functional; details: read-out: GI
# MDA-MB-231 [3] = experiment: Antiproliferative activity against human MDA-MB-231 cells assessed as cell growth inhibition at 10 uM incubated for 24 hrs by sulforhodamine B assay; assay type: functional; details: read-out: GI
# MCF7 [4] = experiment: Antiproliferative activity against human MCF7 cells assessed as reduction in cell viability incubated for 24 hrs by sulforhodamine B assay; assay type: functional, cell-based; details: MCF7, 24 h
# T47D = experiment: Antiproliferative activity against human T47D cells assessed as reduction in cell viability incubated for 24 hrs by sulforhodamine B assay; assay type: functional, cell-based
# PC-3 = experiment: Antiproliferative activity against human PC-3 cells assessed as cell growth inhibition at 10 uM incubated for 24 hrs by sulforhodamine B assay; assay type: functional; details: read-out: GI
# RXF 393 = experiment: Antiproliferative activity against human RXF 393 cells assessed as cell growth inhibition at 10 uM incubated for 24 hrs by sulforhodamine B assay; assay type: functional; details: read-out: GI
# Chain of Carbonic anhydrase 1 (P00915 whole entry): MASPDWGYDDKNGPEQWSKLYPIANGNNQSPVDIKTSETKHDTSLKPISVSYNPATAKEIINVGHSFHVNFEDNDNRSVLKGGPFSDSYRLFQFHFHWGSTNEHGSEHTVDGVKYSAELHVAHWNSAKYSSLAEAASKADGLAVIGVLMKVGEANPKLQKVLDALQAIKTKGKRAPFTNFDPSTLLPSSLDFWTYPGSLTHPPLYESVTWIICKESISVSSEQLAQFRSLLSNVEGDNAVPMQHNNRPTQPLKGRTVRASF
Compound,inhibition of growth at 10 µM (UO-31),Ki (Carbonic anhydrase 1),Ki (Carbonic anhydrase 2),inhibition of growth at 10 µM (CAKI-1),inhibition of growth at 10 µM (SR),inhibition of growth at 10 µM (HCT-15),inhibition of growth at 10 µM (LOX IMVI),Ki (Carbonic anhydrase 9),inhibition of growth at 10 µM (K562),inhibition of growth at 10 µM (SF-539),IC50 (MDA-MB-231 [2]),IC50 (MCF7 [4]),IC50 (T47D),other results
Cc1ccc(-c2nc(SCC(=O)c3ccc(Br)cc3)nc(Nc3ccc(S(N)(=O)=O)cc3)c2C#N)cc1,22.4%,> 20 µM,> 20 µM,13.7%,11.4%,11.3%,11.8%,8.74 µM,8%,17.1%,,,,inhibition of growth at 10 µM (Malme-3M): 8.67%; inhibition of growth at 10 µM (HOP-92): 40.4%; inhibition of growth at 10 µM (HL-60): < 5%; inhibition of growth at 10 µM (MCF7 [1]): 16.5%; inhibition of growth at 10 µM (DU-145): 47.5%; inhibition of growth at 10 µM (NCI-H23): 6.49%; inhibition of growth at 10 µM (Hs-578T): 14.3%
COc1ccc(C(=O)CSc2nc(Nc3ccc(S(N)(=O)=O)cc3)cc(-c3ccccc3)n2)cc1,13%,> 20 µM,> 20 µM,12.6%,27%,9.43%,26.1%,0.0915 µM,46.3%,,,,,inhibition of growth at 10 µM (NCI-H460): 26.9%; inhibition of growth at 10 µM (SNB-75): 10.4%; inhibition of growth at 10 µM (A498): 19.8%; inhibition of growth at 10 µM (ACHN): 28%; inhibition of growth at 10 µM (CCRF-CEM): 11%; inhibition of growth at 10 µM (HL-60): 15%; inhibition of growth at 10 µM (SW-620): 13.9%; inhibition of growth at 10 µM (MOLT-4): 22.1%; inhibition of growth at 10 µM (UACC-62): 13.2%
COc1ccc(C(=O)CSc2nc(Nc3ccc(S(N)(=O)=O)cc3)c(C#N)c(C(C)C)n2)cc1,16.5%,,,5%,11.7%,,,0.0918 µM,10.9%,5.08%,50.4 µM,19.8 µM,60 µM,inhibition of growth at 10 µM (NCI-H522): 5.22%; inhibition of growth at 10 µM (NCI-H226): 7.41%; inhibition of growth at 10 µM (MDA-MB-231 [3]): 5.52%; inhibition of growth at 10 µM (UACC-62): 8.47%
Cc1ccc(-c2nc(SCC(=O)c3ccccc3)nc(Nc3cccc(S(N)(=O)=O)c3)c2C#N)cc1,24.4%,> 20 µM,> 20 µM,13.6%,7.6%,5.35%,11.3%,7.64 µM,,14.1%,,,,inhibition of growth at 10 µM (HOP-92): 65.2%; inhibition of growth at 10 µM (MCF7 [1]): 11.9%; inhibition of growth at 10 µM (PC-3): 6.2%; inhibition of growth at 10 µM (RXF 393): 12.6%; inhibition of growth at 10 µM (NCI-H23): 5.21%
O=c1[nH]cc(F)c(=O)[nH]1 [FLUOROURACIL],,,,,,,,,,,3.5 µM,2.46 µM,6.7 µM,
NS(=O)(=O)c1ccc(Nc2cc(-c3ccccc3)nc(SCC(=O)c3ccccc3)n2)cc1,,,,,,,,0.0858 µM,,,26 µM,44.5 µM,44.4 µM,
NS(=O)(=O)c1cccc(Nc2cc(-c3ccccc3)nc(SCC(=O)c3ccc(Br)cc3)n2)c1,,,,,,,,0.525 µM,,,,,,
